Experimental data published in US8268862B2, “Sirtuin modulating compounds” (Sirtris Pharmaceuticals, Inc., priority 2007, dated 2012).

Molecular target: T1, SIRT1 (Homo sapiens, UniProt Q96EB6)
T1 sequence (Q96EB6 1-747): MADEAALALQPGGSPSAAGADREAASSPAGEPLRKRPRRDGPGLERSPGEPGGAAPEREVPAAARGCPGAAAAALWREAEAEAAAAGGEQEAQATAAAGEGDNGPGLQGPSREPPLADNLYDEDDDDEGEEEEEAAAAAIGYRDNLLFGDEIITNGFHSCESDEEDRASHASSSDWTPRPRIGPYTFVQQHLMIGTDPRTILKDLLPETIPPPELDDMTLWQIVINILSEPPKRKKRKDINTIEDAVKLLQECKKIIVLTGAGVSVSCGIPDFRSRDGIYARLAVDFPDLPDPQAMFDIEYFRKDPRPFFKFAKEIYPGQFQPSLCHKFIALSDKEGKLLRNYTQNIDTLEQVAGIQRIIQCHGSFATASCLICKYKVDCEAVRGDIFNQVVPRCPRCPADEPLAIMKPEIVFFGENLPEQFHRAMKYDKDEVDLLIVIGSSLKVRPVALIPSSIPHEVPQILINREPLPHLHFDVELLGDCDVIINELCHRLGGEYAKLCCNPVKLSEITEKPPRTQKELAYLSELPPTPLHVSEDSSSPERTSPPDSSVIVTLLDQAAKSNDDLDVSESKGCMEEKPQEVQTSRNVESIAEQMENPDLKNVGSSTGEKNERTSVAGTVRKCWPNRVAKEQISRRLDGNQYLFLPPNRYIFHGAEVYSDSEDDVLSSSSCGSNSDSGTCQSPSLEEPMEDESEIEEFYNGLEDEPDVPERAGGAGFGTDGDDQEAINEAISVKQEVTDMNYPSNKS
Test: mass spectrometry based SIRT1 deacetylation assay (activation)
Format: biochemical
Details: 0.5 μM peptide substrate, 120 μM βNAD+, 10 nM SIRT1, 25 min at 25° C.; for EC1.5 (concentration of test compound that results in 150% activation of SIRT1): NA = not active in the assay; for Emax: read-out: % FOLD ACT. (percent maximum fold activation of SIRT1)

Structure (SMILES): O=C(Nc1ccccc1-c1nc2cc(CN3CCC(O)CC3)cnc2s1)c1ccc2ccccc2n1 [Compound 99]
- EC1.5 (concentration of test compound that results in 150% activation of SIRT1): 110 NM
- Emax: 244%

Structure (SMILES): O=C(Nc1ccccc1-c1nc2cc(CN3CC[C@@H](F)C3)cnc2s1)c1cccc(-c2ccc[n+]([O-])c2)c1 [Compound 30]
- EC1.5 (concentration of test compound that results in 150% activation of SIRT1): 986 NM
- Emax: 142%

Structure (SMILES): O=C(Nc1ccccc1-c1nc2cc(CN3CCC(F)CC3)cnc2s1)c1ccc2ccccc2n1 [Compound 114]
- Emax: 146%

Structure (SMILES): COCCN1CCN(Cc2cnc3sc(-c4ccccc4NC(=O)c4cccc(-c5ccc(F)cc5F)n4)nc3c2)CC1 [Compound 142]
- EC1.5 (concentration of test compound that results in 150% activation of SIRT1): 394 NM
- Emax: 378%

Structure (SMILES): O=C(Nc1ccccc1-c1nc2cc(CN3CCC(F)(F)CC3)cnc2s1)c1ccc2ccccc2n1 [Compound 102]
- Emax: 131%

Structure (SMILES): C[C@@H]1CN(Cc2cnc3sc(-c4ccccc4NC(=O)c4cccc(-c5cccnc5)c4)nc3c2)C[C@H](C)N1 [Compound 16]
- EC1.5 (concentration of test compound that results in 150% activation of SIRT1): 674 NM
- Emax: 405%

Structure (SMILES): Cc1nc(-c2cccnc2)sc1C(=O)Nc1ccccc1-c1nc2cc(CN3C[C@@H](C)N[C@@H](C)C3)cnc2s1 [Compound 81]
- Emax: 131%

Structure (SMILES): O=C(Nc1ccccc1-c1nc2cc(CN3CCOCC3)cnc2s1)c1cnc2ccccc2n1 [Compound 65]
- Emax: 100%

Structure (SMILES): COCCN1CCN(Cc2cnc3sc(-c4ccccc4NC(=O)c4cccc(-c5csc(C)n5)c4)nc3c2)CC1 [Compound 41]
- EC1.5 (concentration of test compound that results in 150% activation of SIRT1): 652 NM
- Emax: 275%

Structure (SMILES): O=C(Nc1ccccc1-c1nc2cc(CN[C@H]3CCNC3)cnc2s1)c1cccc(-c2ccccn2)c1 [Compound 37]
- EC1.5 (concentration of test compound that results in 150% activation of SIRT1): 507 NM
- Emax: 422%

Structure (SMILES): Cc1nc(-c2cccnc2)sc1C(=O)Nc1ccccc1-c1nc2cc(CN3CCC(N)CC3)cnc2s1 [Compound 78]
- EC1.5 (concentration of test compound that results in 150% activation of SIRT1): 565 NM
- Emax: 297%

Structure (SMILES): COCCN1CCN(Cc2cnc3sc(-c4ccccc4NC(=O)c4cc(-c5ccccc5)ncn4)nc3c2)CC1 [Compound 87]
- EC1.5 (concentration of test compound that results in 150% activation of SIRT1): 955 NM
- Emax: 166%

Structure (SMILES): COCCN1CCN(Cc2cnc3sc(-c4ccccc4NC(=O)c4cc(C)nc(-c5ccccc5)n4)nc3c2)CC1 [Compound 131]
- EC1.5 (concentration of test compound that results in 150% activation of SIRT1): 106 NM
- Emax: 500%

Structure (SMILES): O=C(Nc1ccccc1-c1nc2cc(CN3CCOCC3)cnc2s1)c1cn2cc(Cl)ccc2n1 [Compound 127]
- Emax: 143%

Structure (SMILES): Cc1nc(-c2cccc(C(=O)Nc3ccccc3-c3nc4cc(CN5CC[C@@H](F)C5)cnc4s3)c2)cs1 [Compound 32]
- EC1.5 (concentration of test compound that results in 150% activation of SIRT1): 815 NM
- Emax: 162%

Structure (SMILES): O=C(Nc1ccccc1-c1nc2cc(CN3CCNCC3)cnc2s1)c1nc2ccccc2s1 [Compound 91]
- EC1.5 (concentration of test compound that results in 150% activation of SIRT1): 4410 NM
- Emax: 333%

Structure (SMILES): O=C(Nc1ccccc1-c1nc2cc(CN3CCSCC3)cnc2s1)c1ccc2ccccc2n1 [Compound 108]
- EC1.5 (concentration of test compound that results in 150% activation of SIRT1): 1060 NM
- Emax: 178%

Structure (SMILES): NC1CCN(Cc2cnc3sc(-c4ccccc4NC(=O)c4cccc(-c5cccnc5)c4)nc3c2)CC1 [Compound 18]
- EC1.5 (concentration of test compound that results in 150% activation of SIRT1): 620 NM
- Emax: 457%

Structure (SMILES): O=C(Nc1ccccc1-c1nc2cc(CN3CCOCC3)cnc2s1)c1ccc2cccnc2n1 [Compound 107]
- EC1.5 (concentration of test compound that results in 150% activation of SIRT1): 500 NM
- Emax: 219%

Structure (SMILES): O=C(Nc1ccccc1-c1nc2cc(CN3CCOCC3)cnc2s1)c1nc2ccccc2o1 [Compound 98]
- Emax: 139%

Structure (SMILES): O=C(Nc1ccccc1-c1nc2cc(CN3CCOCC3)cnc2s1)c1cccc(-c2cccnc2)c1 [Compound 5]
- EC1.5 (concentration of test compound that results in 150% activation of SIRT1): 665 NM
- Emax: 281%

Structure (SMILES): COc1ccc(-c2ccc(C(=O)Nc3ccccc3-c3nc4cc(CN5CCOCC5)cnc4s3)o2)cc1 [Compound 74]
- EC1.5 (concentration of test compound that results in 150% activation of SIRT1): 421 NM
- Emax: 236%

Structure (SMILES): COCCN1CCN(Cc2cnc3sc(-c4ccccc4NC(=O)c4cccc(-c5ccccc5C(F)(F)F)n4)nc3c2)CC1 [Compound 139]
- EC1.5 (concentration of test compound that results in 150% activation of SIRT1): 230 NM
- Emax: 457%

Structure (SMILES): Cc1nc(-c2cccc(C(=O)Nc3ccccc3-c3nc4cc(CN5CCNCC5)cnc4s3)c2)cs1 [Compound 46]
- EC1.5 (concentration of test compound that results in 150% activation of SIRT1): 503 NM
- Emax: 446%

Structure (SMILES): Cc1nc(-c2cccnc2)sc1C(=O)Nc1ccccc1-c1nc2cc(CN3CC[C@@H](N)C3)cnc2s1 [Compound 79]
- EC1.5 (concentration of test compound that results in 150% activation of SIRT1): 1220 NM
- Emax: 240%

Structure (SMILES): COCCN1CCN(Cc2cnc3sc(-c4ccccc4NC(=O)c4cccc(-c5ccccc5)n4)nc3c2)CC1 [Compound 47]
- EC1.5 (concentration of test compound that results in 150% activation of SIRT1): 82 NM

Structure (SMILES): COCCN1CCN(Cc2cnc3sc(-c4ccccc4NC(=O)c4cccc(-c5cccc(Cl)c5)n4)nc3c2)CC1 [Compound 138]
- EC1.5 (concentration of test compound that results in 150% activation of SIRT1): 88 NM
- Emax: 497%

Structure (SMILES): Cn1cc(-c2ccccc2)cc1C(=O)Nc1ccccc1-c1nc2cc(CN3CCOCC3)cnc2s1 [Compound 150]
- EC1.5 (concentration of test compound that results in 150% activation of SIRT1): 67 NM
- Emax: 267%

Structure (SMILES): O=C(Nc1ccccc1-c1nc2cc(CN3CCCC3)cnc2s1)c1cccc(-c2ccccc2)n1 [Compound 60]
- EC1.5 (concentration of test compound that results in 150% activation of SIRT1): 144 NM
- Emax: 477%

Structure (SMILES): O=C(Nc1ccccc1-c1nc2cc(CNC3CCNCC3)cnc2s1)c1ccc2ccccc2n1 [Compound 116]
- EC1.5 (concentration of test compound that results in 150% activation of SIRT1): 270 NM
- Emax: > 500%

Structure (SMILES): Cc1c(C(=O)Nc2ccccc2-c2nc3cc(CN4CCNCC4)cnc3s2)oc2ccccc12 [Compound 89]
- EC1.5 (concentration of test compound that results in 150% activation of SIRT1): 235 NM
- Emax: 239%

Structure (SMILES): COCCN1CCN(Cc2cnc3sc(-c4ccccc4NC(=O)c4cccc(-c5cccc(F)c5F)n4)nc3c2)CC1 [Compound 146]
- EC1.5 (concentration of test compound that results in 150% activation of SIRT1): 127 NM
- Emax: 500%

Structure (SMILES): COCCN1CCN(Cc2cnc3sc(-c4ccccc4NC(=O)c4cccc(-c5cccc(F)c5)n4)nc3c2)CC1 [Compound 57]
- EC1.5 (concentration of test compound that results in 150% activation of SIRT1): 41 NM
- Emax: > 500%

Structure (SMILES): Cc1nc(-c2cccc(C(=O)Nc3ccccc3-c3nc4cc(CN5CCOCC5)cnc4s3)c2)cs1 [Compound 39]
- EC1.5 (concentration of test compound that results in 150% activation of SIRT1): 400 NM
- Emax: 241%

Structure (SMILES): NC1CCN(Cc2cnc3sc(-c4ccccc4NC(=O)c4cccc(-c5ccccc5)c4)nc3c2)CC1 [Compound 11]
- EC1.5 (concentration of test compound that results in 150% activation of SIRT1): 78 NM
- Emax: 578%

Structure (SMILES): O=C(Nc1ccccc1-c1nc2cc(CN3CCOCC3)cnc2s1)c1cccc(-c2ccccc2)n1 [Compound 55]
- EC1.5 (concentration of test compound that results in 150% activation of SIRT1): 74 NM
- Emax: > 500%

Structure (SMILES): C[C@@H]1CN(Cc2cnc3sc(-c4ccccc4NC(=O)c4cccc(-c5ccccc5)c4)nc3c2)C[C@H](C)N1 [Compound 24]
- EC1.5 (concentration of test compound that results in 150% activation of SIRT1): 94 NM
- Emax: 299%

Structure (SMILES): COCCN1CCN(Cc2cnc3sc(-c4ccccc4NC(=O)c4cccc(-n5cccn5)c4)nc3c2)CC1 [Compound 45]
- EC1.5 (concentration of test compound that results in 150% activation of SIRT1): 144 NM
- Emax: 569%

Structure (SMILES): O=C(Nc1ccccc1-c1nc2cc(CN3CCOCC3)cnc2s1)c1ccc2ccccc2n1 [Compound 68]
- EC1.5 (concentration of test compound that results in 150% activation of SIRT1): 593 NM
- Emax: 295%

Structure (SMILES): O=C(Nc1ccccc1-c1nc2cc(CN3CC[C@@H](F)C3)cnc2s1)c1cccc(-c2cccc(F)c2)n1 [Compound 54]
- EC1.5 (concentration of test compound that results in 150% activation of SIRT1): 110 NM
- Emax: 538%

Structure (SMILES): O=C(Nc1ccccc1-c1nc2cc(CN3CCCC3)cnc2s1)c1cccc(-c2ccccn2)c1 [Compound 20]
- EC1.5 (concentration of test compound that results in 150% activation of SIRT1): 687 NM
- Emax: 224%

Structure (SMILES): O=C(Nc1ccccc1-c1nc2cc(CN3CCNCC3)cnc2s1)c1cn2cc(Cl)ccc2n1 [Compound 125]
- Emax: 437%
